We go through three molecules from patent US12410148B2, “Antibody drug conjugates” (Pharma Mar, S.A., priority 2013, dated 2025).

Values after ≈ are worked out from the molar mass of the structure shown. Values joined by “and” are separate entries in the source; they are usually repeats but may differ in a detail not shown here. Equal values may be shown once. Read-outs that look alike come from different tables or passages of the source.

In series [1] the test system is Raji-clone #10 (high CD5 expression). As to the kind of experiment: In vitro cytotoxicity, MTT assay, 72 h dose-response. The class given is cell-based. As to conditions: Homo sapiens. For orientation: Tetrazolium dyes change colour on reduction, which living cells bring about.
Procedure: (§5) Briefly, MTT solution was added to the cell cultures at a final concentration of 0.5 mg/mL, and incubated for 1 to 4 hours at 37° C. until formazan crystals are formed. Culture medium is carefully removed from the cell cultures and formazan crystals resuspended in 100 μl DMSO. […] Cell survival was expressed as percentage of control, untreated cell survival.
Series [2] deals with Karpas-299, MOLT-4, Raji and RPMI-8226 cells. As to the kind of experiment: In vitro cytotoxicity, whole CD5 cell panel. To be noted: for IC50: Homo sapiens. The text has this:
(§1) All tumor cell lines used in this study were obtained from the American Type Culture Collection (ATCC), unless otherwise indicated; BT-474 (ATCC HTB-20, Breast Ductal Carcinoma), SK-BR-3 (ATCC HTB-30, Breast Adenocarcinoma) and HCC-1954 (ATCC CRL-2338, Breast Ductal Carcinoma), all HER2+; MDA-MB-231 (ATCC HTB-26, Breast Adenocarcinoma) and MCF-7 (ATCC HTB-22 Breast Adenocarcinoma, pleural effusion), all HER2-; SK-OV-3 (ATCC HTB-77, Ovary Adenocarcinoma), HER2+; NB-4 (Acute Promyelocytic Leukemia, APL, CD13+, M. Lanotte et al. (1991) NB4, a maturation inducible cell line with t(15;17) marker isolated from a human acute promyelocytic leukemia (M3). Blood 77, 1080-1086), (CD13+) and U937 (ATCC CRL-1 593.2, Histiocytic Lymphoma, CD13+ and CD4+); Raji (ATCC CCL-86, Burkitt's Lymphoma) (CD13−, CD20+, CD5−, and CD4−); RPMI-8226 (ATCC CRM-CCL-155, Multiple Myeloma) (CD13−, CD20−, CD5− and CD4−); Karpas-299 (DSMZ ACC-31, Non-Hodgkin's Lymphoma) (CD20−, CD5+, and CD4+); MOLT-4 (ATCC CRL-1 582, Acute Lymphoblastic Leukemia, CD5+). In addition, the two Raji cell (ATCC CCL-86, Burkitt's Lymphoma) clones used in this study Raji-clone #10 (high CD5 expression) and Raji-clone18 (null CD5 expression), were provided by Dr. Juan M. Zapata (Instituto de Investigaciones Biomedicas “Alberto Sols”, CSIC-UAM, Madrid, Spain). Cells were maintained at 37° C., 5% CO 2 and 95% humidity in Dulbecco's Modified Eagle's Medium (DMEM) (for MCF and MDA-MB-231 cells), RPMI-1640 (for SK-BR-3, HCC-1954, NB-4, U937, Raji, RPMI-8226, Karpas-299, MOLT-4, Raji-clone #10 and Raji-clone #18 cells), RPMI-1640+1% ITS (for BT-474 cells) or McCOyS (for SK-OV-3 cells), all media supplemented with 10% Fetal Calf Serum (FCS) and 100 units/mL penicillin and streptomycin.
(§2) For suspension cells: A standard metabolic assay using MTT (3-(4,5-Dimethylthiazol-2-yl)-2,5-diphenyltetrazolium bromide) was adapted for quantitative measurement of cell growth and cytotoxicity, as described in T. Mosmann (1983) Rapid colorimetric assay for cellular growth and survival: Application to proliferation and cytotoxicity assays. J. Immunol. Meth., 65, 55-63. Briefly, MTT solution was added to the cell cultures at a final concentration of 0.5 mg/mL, and incubated for 1 to 4 hours at 37° C. until formazan crystals are formed. Culture medium is carefully removed from the cell cultures and formazan crystals resuspended in 100 μl DMSO. After mixing to assure solubilization, the quantity of formazan (presumably directly proportional to the number of viable cells) is measured by recording changes in absorbance at 570 nm using a plate reading spectrophotometer. Cell survival was expressed as percentage of control, untreated cell survival.
(§3) The IC50 value refers to the concentration of compound inducing a 50% of cell death as compared to the control cell survival.
The in vitro cytotoxic activity of ADC14 along with the parent cytotoxic Compounds 1, 4, and 40, was evaluated against different human cancer cell lines expressing or not the CD5 antigen, including Karpas-299 and MOLT-4 (both CD5+); Raji and RPMI-8226 (both CD5−). Standard dose-response (DR) curves for 72 hours were performed.

Series [3] concerns Raji, RPMI-8226 and Karpas-299 cells. Nature of the series: In vitro cytotoxicity, whole CD20 cell panel. To be noted: Homo sapiens.
Text: as §1, §2, §3
The in vitro cytotoxic activity of ADC12 along with the parent cytotoxic Compounds 1, 4, and 40, was evaluated was assayed against different human cancer cell lines expressing or not the CD20 antigen, including Raji (CD20 positive cells); RPMI-8226 and Karpas-299 (CD20 negative cells). Standard dose-response (DR) curves for 72 hours were performed.

Series [4] concerns Karpas-299, U937, Raji and RPMI-8226 cells. Nature of the series: In vitro cytotoxicity, whole CD4 cell panel. As to conditions: Homo sapiens.
Text: as §1, §2, §3
The in vitro cytotoxic activity of ADC16 along with the parent cytotoxic Compounds 1, 4, and 40, was evaluated against different human cancer cell lines expressing or not the CD4 antigen, including Karpas-299 and U937 (both CD4+); Raji and RPMI-8226 (both CD4−). Standard dose-response (DR) curves for 72 hours were performed.

The test system of series [5] is NB-4 cells. As to the kind of experiment: In vitro cytotoxicity, MTT assay, 72 h dose-response. It counts as cell-based. As to conditions: Homo sapiens, CD13+.
Procedure: as §5
For series [6], the system named is Raji-clone #18 (null CD5 expression). Described as above. The class given is cell-based. To be noted: Homo sapiens.
Procedure: as §5
Series [7] deals with U937 cells. Described as above. It counts as cell-based, human. As to conditions: CD13+, CD4+.
Procedure: as §5
Series [8] relates to MOLT-4 cells. The series is described as above. It counts as cell-based. To be noted: Homo sapiens, CD5+.
Procedure: as §5
Series [9] has as its system MCF-7 cells. As to the kind of experiment: In vitro cytotoxicity, SRB assay, 72 h dose-response. The class given is cell-based. To be noted: Homo sapiens, MCF7, 72 h. From the text:
(§4) Nature Protocols, 1, 1112-1 116.
A general note: In SRB staining, fixed cells bind dye roughly in proportion to their protein.

Series [10] relates to MDA-MB-231 cells. Described as above. It counts as cell-based. As to conditions: Homo sapiens, MDA-MB-231, 72 h.
Text: as §4

In series [11] the test system is RPMI-8226 cells. As to the kind of experiment: In vitro cytotoxicity, MTT assay, 72 h dose-response. The class given is cell-based, human. To be noted: CD13−, CD20−, CD5−, CD4−.
Procedure: as §5
In series [12] the test system is Karpas-299 cells. The description is as above. The class given is cell-based, human. As to conditions: CD20−, CD5+, CD4+.
Procedure: as §5
[13] abbreviates: read-out: IC50 values across the different cell lines tested (range).
The mark [14] stands for this setting: read-out: mean IC50 value across the whole cell panel.
[15] abbreviates: Homo sapiens, RPMI-8226, 72 h, read-out: IC50.
The mark [16] stands for this setting: Homo sapiens, KARPAS-299, 72 h, read-out: IC50.

Consider `COC1=CC[C@@H]([C@@H](C)/C=C(C)/C=C\C=C/C(=O)N[C@H](C(=O)N/C=C\C[C@H](C/C=C(\C)Cl)OC(=O)NCCCNC(=O)CCCCCN2C(=O)C=CC2=O)C(C)(C)C)OC1=O` [Compound 1], for which the IC50 (commonly the concentration that gives 50% inhibition) in series [1] (C#10 (high CD5)) was 0.0029 µg/mL and 3.39 nM; in series [1] (clone #10, CD5 expressing) it was 3.4 nM; in series [2] (setting [13]), 1.8 to 11 ng/mL (≈ 2.1 to 12.8 nM); in series [2] (setting [14]), 0.0046 µg/mL and 5.3 nM; in [3] (setting [13]) it was 0.0016 µg/mL to 0.0028 µg/mL and 1.9 nM to 3.3 nM; in [3] (setting [14]), 0.0021 µg/mL and 2.5 nM. For the same molecule, the IC50 in series [4] (setting [13]) was 0.0015 µg/mL to 0.0073 µg/mL and 1.7 nM to 8.6 nM; in series [4] (setting [14]) it was 0.0034 µg/mL and 3.9 nM; in [5], 0.000805 µg/mL and 0.939 nM; in series [6] (C#18 (null CD5)), 0.038 µg/mL and 44.4 nM; in series [6] (clone #18, CD5 null) it was 44 nM; in series [7] (Homo sapiens, U-937, 72 h, read-out: IC50) it was 0.00165 µg/mL and 1.93 nM. Besides, the IC50 in series [8] is 0.00335 µg/mL and 3.91 nM; in [9] (HER2−, 72 h, read-out: IC50), 0.0037 µg/mL and 4.32 nM; in [10] (HER2−, 72 h, read-out: IC50), 0.0028 µg/mL and 3.27 nM; in series [11] (setting [15]), 0.0025 µg/mL and 2.92 nM; in [12] (setting [16]) it was 0.0019 µg/mL and 2.22 nM.

On to `COC1=CC[C@@H]([C@@H](C)/C=C(C)/C=C\C=C/C(=O)N[C@H](C(=O)N/C=C\C[C@H](C/C=C(\C)Cl)OC(=O)NCCCN)C(C)(C)C)OC1=O` [Compound 4], for which the IC20 (usually the concentration needed for an effect of 20%) was 0.00465 µg/mL and 7.01 nM in [1] (C#10 (high CD5)); 0.00677 µg/mL and 10.2 nM in series [6] (C#18 (null CD5)). Moreover, the IC50 in series [1] (C#10 (high CD5)) is 0.0099 µg/mL and 14.9 nM; in [1] (clone #10, CD5 expressing), 15.7 nM; in series [2] (setting [13]), 0.00063 µg/mL to 0.0027 µg/mL and 0.95 nM to 4.1 nM; in series [2] (setting [14]) it was 0.0013 µg/mL and 1.9 nM; in [3] (setting [13]), 0.00057 µg/mL to 0.0014 µg/mL and 0.86 nM to 2.1 nM; in series [3] (setting [14]) it was 0.00097 µg/mL and 1.5 nM. Also, the IC50 was 0.00061 µg/mL to 0.0027 µg/mL and 0.92 nM to 4.1 nM in series [4] (setting [13]); 0.0012 µg/mL and 1.8 nM in [4] (setting [14]); 7.9e-05 µg/mL and 0.12 nM in series [5]; > 15.1 nM and > 0.01 µg/mL in series [6] (C#18 (null CD5)); 0.000278 µg/mL in series [7]; 0.419 nM in series [7] (read-out: IC50). In addition, the IC50 is 0.00091 µg/mL and 1.37 nM in series [8]; 0.000415 µg/mL and 0.626 nM in series [9] (HER2−, 72 h, read-out: IC50); 0.00031 µg/mL and 0.468 nM in [10] (HER2−, 72 h, read-out: IC50); 0.00057 µg/mL in series [11]; 0.859 nM in [11] (read-out: IC50); 0.000358 µg/mL and 0.539 nM in series [11] (setting [15]). Besides, the IC50 is 1.38 nM in series [12] (read-out: IC50); 0.00093 µg/mL and 1.4 nM in [12] (setting [16]). For the same molecule, the “reduction of cytotoxic activity as compared to Compound 40” value in series [2] (amine containing group) is on record as “around 1 log”.

Regarding `COC1=CC[C@@H]([C@@H](C)/C=C(C)/C=C\C=C/C(=O)N[C@H](C(=O)N/C=C\C[C@H](C/C=C(\C)Cl)OC(N)=O)C(C)(C)C)OC1=O` [Compound 40], the IC50 is 0.495 ng/mL in [1] (C#10 (high CD5)); 0.817 nM in series [1] (clone #10, CD5 expressing); 7.5e-05 µg/mL to 0.00036 µg/mL and 0.12 nM to 0.59 nM in series [2] (setting [13]); 0.00016 µg/mL and 0.26 nM in series [2] (setting [14]); 8.6e-05 µg/mL to 0.00011 µg/mL and 0.14 nM to 0.19 nM in [3] (setting [13]); 9.6e-05 µg/mL and 0.16 nM in series [3] (setting [14]). For the same molecule, the IC50 is 0.13 nM to 0.47 nM and 7.9e-05 µg/mL to 0.00028 µg/mL in series [4] (setting [13]); 0.00015 µg/mL and 0.25 nM in [4] (setting [14]); 3.1e-05 µg/mL and 0.052 nM in [5]; 0.89 ng/mL in [6] (C#18 (null CD5)); 1.47 nM in series [6] (clone #18, CD5 null); 7.9e-05 µg/mL in [7]. In addition, the IC50 in series [7] (read-out: IC50) is 0.131 nM; in [8] it was 9.3e-05 µg/mL and 0.154 nM; in series [9], 0.000132 µg/mL and 0.218 nM; in [10], 0.000173 µg/mL and 0.284 nM; in series [11] it was 8.65e-05 µg/mL and 0.00012 µg/mL; in [11] (read-out: IC50), 0.143 nM and 0.198 nM. Also, the IC50 in series [12] is 0.00013 µg/mL; in series [12] (read-out: IC50), 0.142 nM and 0.215 nM.
